Measured values as given in patent US7220758B2, “Ether substituted imidazopyridines” (3M Innovative Properties Company, priority 2002, dated 2007).
Structures can show the parent of a compound that is named as a salt.

| SMILES | melting point [°C] |
| --- | --- |
| Cc1nc(N)c2nc(C)n(CCOc3ccccc3)c2c1C [Example 2, 2,6,7-Trimethyl-1-(2-phenoxyethyl)-1H-imidazo[4,5-c]pyridin-4-amine] | 176 to 177 |
| Cc1nc(N)c2ncn(CCOc3ccccc3)c2c1C [Example 1, 6,7-Dimethyl-1-(2-phenoxyethyl)-1H-imidazo[4,5-c]pyridin-4-amine] | 197 to 199 |
| CCCc1nc2c(N)nc(C)c(C)c2n1CCCCCS(=O)(=O)c1ccc(OC)cc1 | 130.5 to 132 |
| CCCCc1nc2c(N)nc(C)c(C)c2n1CCOc1ccccc1 [Example 3, 2-Butyl-6,7-dimethyl-1-(2-phenoxyethyl)-1H-imidazo[4,5-c]pyridin-4-amine] | 130 to 132 |
| CCOCc1nc2c(N)nc(C)c(C)c2n1CCOCc1ccccc1 [Example 4, 1-[2-(Benzyloxy)ethyl]-2-(ethoxymethyl)-6,7-dimethyl-1H-imidazo[4,5-c]pyridin-4-amine] | 107.3 to 108.2 |
| Cc1nc(N)c2nc(C)n(CCOCCCc3ccccc3)c2c1C [Example 8, 2,6,7-Trimethyl-1-[2-(3-phenylpropoxy)ethyl]-1H-imidazo[4,5-c]pyridin-4-amine] | 118.1 to 119 |
| CCCc1nc2c(N)nc(C)c(C)c2n1CCCCCS(=O)(=O)c1ccc(C(F)(F)F)cc1 | 172 to 173.5 |
| CCCc1nc2c(N)nc(C)c(C)c2n1CCCS(=O)(=O)c1ccc(Cl)cc1 | 186.5 to 188 |

Now from value to compound:

| melting point [°C] | SMILES |
| --- | --- |
| 157 to 158 | CCCc1nc2c(N)nc(C)c(C)c2n1CCCCCCS(C)(=O)=O [Example 91, 1-[6-(Methanesulfonyl)hexyl]-6,7-dimethyl-2-propyl-1H-imidazo[4,5-c]pyridin-4-amine] |
| 195 to 196 | Cc1nc(N)c2ncn(CCOCc3ccncc3)c2c1C [Example 84, 6,7-Dimethyl-1-[2-(pyridin-4-ylmethoxy)ethyl]-1H-imidazo[4,5-c]pyridin-4-amine] |
| 172 to 173.5 | CCCc1nc2c(N)nc(C)c(C)c2n1CCCS(=O)(=O)c1ccccn1 [Example 98, 6,7-Dimethyl-2-propyl-1-[3-(pyridine-2-sulfonyl)propyl]-1H-imidazo[4,5-c]pyridin-4-amine] |
| 127 to 128 | CCOCc1nc2c(N)nc(C)cc2n1CCOCc1ccccc1 [Example 80, 1-[2-(Benzyloxy)ethyl]-2-(ethoxymethyl)-6-methyl-1H-imidazo[4,5-c]pyridin-4-amine] |
| 147 to 149 | CCCc1nc2c(N)nc(C)c(C)c2n1CCCCCS(=O)(=O)c1ccc(Cl)cc1 [Example 85, 1-[5-(4-Chlorobenzenesulfonyl)pentyl]-6,7-dimethyl-2-propyl-1H-imidazo[4,5-c]pyridin-4-amine] |
| 129 to 130 | CCOCc1nc2c(N)nc(C)c(C)c2n1CCOCC#Cc1ccccc1 [Example 122, 2-Ethoxymethyl-6,7-dimethyl-1-{2-[(3-phenylprop-2-ynyl)oxy]ethyl}-1H-imidazo[4,5-c]pyridin-4-amine] |
| 153.5 to 155 | CCCc1nc2c(N)nc(C)c(C)c2n1CCCS(C)(=O)=O [Example 90, 1-[3-(Methanesulfonyl)propyl]-6,7-dimethyl-2-propyl-1H-imidazo[4,5-c]pyridin-4-amine] |
| > 250 | CCCc1nc2c(N)nc(C)c(C)c2n1CCCS(=O)(=O)c1ccc(C(=O)O)cc1 (as salt: hydrochloride) [Example 100, 4-[3-(4-Amino-6,7-dimethyl-2-propyl-1II-imidazo[4,5-c]pyridin-1-yl)propane-1-sulfonyl]benzoic acid hydrochloride] |
| 143 to 144.5 | CCCc1nc2c(N)nc(C)c(C)c2n1CCCCCS(=O)(=O)c1ccccn1 [Example 87, 6,7-Dimethyl-2-propyl-1-[5-(pyridine-2-sulfonyl)pentyl]-1H-imidazo[4,5-c]pyridin-4-amine] |
| 130 to 133 | Cc1nc(N)c2nc(C)n(CCOCCN)c2c1C (as salt: salt) [Example 14, 1-[2-(2-Aminoethoxy)ethyl]-2,6,7-trimethyl-1H-imidazo[4,5-c]pyridin-4-amine] |
